Target: EGFR (epidermal growth factor receptor) (Homo sapiens, UniProt P00533)
Test: labelling in transfected HeLa cells, immunoprecipitation, in-gel fluorescence
Format: cell-based
Conditions: covalent, at Cys797 sulfenic acid; 50 uM probe, 500 uM H2O2, 1 h, 37 °C

Sequence of EGFR (epidermal growth factor receptor) (P00533 25-1210): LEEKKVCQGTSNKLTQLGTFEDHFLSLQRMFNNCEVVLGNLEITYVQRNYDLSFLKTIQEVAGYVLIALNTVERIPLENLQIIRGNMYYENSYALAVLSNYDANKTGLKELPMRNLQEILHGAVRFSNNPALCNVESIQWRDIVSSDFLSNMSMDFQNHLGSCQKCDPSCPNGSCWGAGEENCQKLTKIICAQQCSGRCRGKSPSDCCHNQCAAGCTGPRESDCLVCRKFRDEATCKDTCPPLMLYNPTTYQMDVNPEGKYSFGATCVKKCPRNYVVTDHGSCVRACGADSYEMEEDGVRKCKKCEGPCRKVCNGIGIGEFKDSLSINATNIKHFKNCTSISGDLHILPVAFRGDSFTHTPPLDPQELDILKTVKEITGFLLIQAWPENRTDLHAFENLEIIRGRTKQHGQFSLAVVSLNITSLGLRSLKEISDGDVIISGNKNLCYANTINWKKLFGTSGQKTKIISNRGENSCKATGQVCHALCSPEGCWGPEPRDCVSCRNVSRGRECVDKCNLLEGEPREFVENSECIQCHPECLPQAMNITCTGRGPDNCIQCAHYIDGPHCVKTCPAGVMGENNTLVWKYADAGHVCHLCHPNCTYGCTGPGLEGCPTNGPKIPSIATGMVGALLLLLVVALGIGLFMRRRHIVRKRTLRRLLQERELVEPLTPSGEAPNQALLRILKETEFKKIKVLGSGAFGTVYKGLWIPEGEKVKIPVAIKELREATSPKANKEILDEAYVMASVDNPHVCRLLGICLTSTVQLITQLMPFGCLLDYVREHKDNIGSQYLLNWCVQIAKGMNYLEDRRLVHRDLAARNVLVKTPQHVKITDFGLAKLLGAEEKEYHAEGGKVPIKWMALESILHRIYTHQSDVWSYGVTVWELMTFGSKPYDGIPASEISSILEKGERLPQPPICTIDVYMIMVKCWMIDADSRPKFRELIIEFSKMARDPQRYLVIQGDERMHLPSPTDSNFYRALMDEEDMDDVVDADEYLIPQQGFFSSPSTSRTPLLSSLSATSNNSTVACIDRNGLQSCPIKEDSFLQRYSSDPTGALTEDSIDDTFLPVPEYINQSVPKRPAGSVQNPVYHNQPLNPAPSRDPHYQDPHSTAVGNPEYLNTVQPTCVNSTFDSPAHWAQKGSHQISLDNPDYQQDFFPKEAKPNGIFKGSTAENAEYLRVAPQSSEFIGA

| Compound | labelling in transfected HeLa cells, immunoprecipitation, in-gel fluorescence |
| --- | --- |
| Nc1c(F)cc2c3c(cccc13)C(=O)CS2(=O)=O [compound 7, CysOx1] | Wild-type EGFR exhibited detectable fluorescence signal from CysOx1 or CysOx2 |
| O=C1CS(=O)(=O)c2cc(F)c(N3CCC3)c3cccc1c23 [compound 8, CysOx2] | Wild-type EGFR exhibited detectable fluorescence signal from CysOx1 or CysOx2 |
